Measurements reported in US8293781B2, “Indole derivatives having cPLA2 inhibiting activity and applications and production methods of the same” (Daiichi Sankyo Company, Limited, priority 2007, dated 2012).
Counter-ions that a name gives are not always drawn.

These molecules were tested against T1, cPLA2 crudely purified from the cytoplasm fraction of U937 (Homo sapiens, UniProt P47712) (assay: Measurement of cPLA2 inhibitory activity (release of [14C]-arachidonic acid from phosphatidyl choline liposome)). Settings: cPLA2 from U937 cytoplasm fraction, [14C]arachidonyl-phosphatidyl choline liposome, 37° C., 60 minutes; read-out: cPLA2 inhibitory activity, 50% inhibiting concentration IC50.
T1 construct: cPLA2 crudely purified from the cytoplasm fraction of U937; endogenous in cells; host or cells: U937 cells (cytoplasm fraction, crude purification)
T1 sequence (P47712 1-749): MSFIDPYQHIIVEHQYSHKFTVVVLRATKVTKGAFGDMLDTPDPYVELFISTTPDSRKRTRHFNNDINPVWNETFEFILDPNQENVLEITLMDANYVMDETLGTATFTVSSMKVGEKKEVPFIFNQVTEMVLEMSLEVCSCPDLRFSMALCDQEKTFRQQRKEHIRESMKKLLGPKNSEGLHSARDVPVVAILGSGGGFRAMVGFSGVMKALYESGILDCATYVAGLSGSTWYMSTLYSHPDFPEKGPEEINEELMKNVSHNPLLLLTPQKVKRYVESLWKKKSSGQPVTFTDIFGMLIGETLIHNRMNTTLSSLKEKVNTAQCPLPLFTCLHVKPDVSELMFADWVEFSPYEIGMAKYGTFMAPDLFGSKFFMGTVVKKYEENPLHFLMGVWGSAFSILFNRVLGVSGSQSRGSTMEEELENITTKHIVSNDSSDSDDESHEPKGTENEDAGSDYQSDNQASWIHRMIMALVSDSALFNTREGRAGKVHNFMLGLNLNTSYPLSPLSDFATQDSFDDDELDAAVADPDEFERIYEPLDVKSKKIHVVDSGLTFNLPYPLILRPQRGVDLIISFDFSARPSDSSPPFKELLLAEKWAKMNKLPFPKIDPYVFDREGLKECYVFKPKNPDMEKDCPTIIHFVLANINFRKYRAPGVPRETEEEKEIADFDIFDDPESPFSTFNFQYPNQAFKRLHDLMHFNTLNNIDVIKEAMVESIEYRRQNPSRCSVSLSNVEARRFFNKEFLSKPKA
Type: biochemical
In short: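 The read-out is radioactivity from extracted [14C]-arachidonic acid, freed over 60 min at 37° C from liposomes of 14C-arachidonyl phosphatidylcholine (10 μM PC in the added solution). Buffer was 50 mM HEPES pH 7.5 with Ca2+, DTT, NaCl and BSA. IC50 was derived from inhibition relative to enzyme control minus no-enzyme control.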

SMILES | IC50 [nM]
O=C(O)CCc1ccc2c(c1)c(CCc1ccccc1)cn2-c1cc(F)c(OCc2ccccc2)c(F)c1 [Example 288, 3-{1-[4-(benzyloxy)-3,5-difluorophenyl]-3-(2-phenylethyl)-1H-indol-5-yl}propanoic acid 2-amino-2-(hydroxymethyl)propane-1,3-diol salt (1:1)] | 264
O=C(O)CCc1ccc2c(c1)c(CCc1ccccc1)cn2-c1cc(F)c(O)c(F)c1 [Example 289, 3-[1-(3,5-difluoro-4-hydroxyphenyl)-3-(2-phenylethyl)-1H-indol-5-yl]propanoic acid] | 182
O=C(O)CCc1ccc2c(c1)c(CCc1ccccc1)cn2-c1ccc(COc2ccc(F)cc2)cc1 [Example 291, 3-[1-{4-[(4-fluorophenoxy)methyl]phenyl}-3-(2-phenylethyl)-1H-indol-5-yl]propanoic acid 2-amino-2-(hydroxymethyl)propane-1,3-diol salt (1:1)] | 83
O=C(O)CCc1ccc2c(c1)c(CCc1ccccc1)cn2-c1ccc(COC(F)F)cc1 [Example 293, 3-[1-{4-[(difluoromethoxy)methyl]phenyl}-3-(2-phenylethyl)-1H-indol-5-yl]propanoic acid] | 191
CC(O)c1ccc(-n2cc(CCc3ccccc3)c3cc(CCC(=O)O)ccc32)cc1 (centres unmarked) [Example 295, 3-{1-[4-(1-hydroxyethyl)phenyl]-3-(2-phenylethyl)-1H-indol-5-yl}propanoic acid 2-amino-2-(hydroxymethyl)propane-1,3-diol salt (1:1)] | 755
O=C(O)CCc1ccc2c(c1)c(CCc1ccccn1)cn2-c1cc(F)c(OCc2ccccc2)c(F)c1 [Example 297, 3-{1-[4-(benzyloxy)-3,5-difluorophenyl]-3-(2-pyridin-2-ylethyl)-1H-indol-5-yl}propanoic acid] | 442
O=C(O)CCc1ccc2c(c1)c(CCc1ccccn1)cn2-c1cc(F)c(O)c(F)c1 [Example 298, 3-[1-(3,5-difluoro-4-hydroxyphenyl)-3-(2-pyridin-2-ylethyl)-1H-indol-5-yl]propanoic acid hydrochloride] | 923
O=C(O)CCc1ccc2c(c1)c(CCc1ccccn1)cn2-c1ccc(COc2ccc(F)cc2)cc1 [Example 300, 3-[1-{4-[(4-fluorophenoxy)methyl]phenyl}-3-(2-pyridin-2-ylethyl)-1H-indol-5-yl]propanoic acid hydrochloride] | 381
O=C(O)CCc1ccc2c(c1)c(CCc1ccccn1)cn2-c1ccc(COC(F)F)cc1 [Example 302, 3-[1-{4-[(difluoromethoxy)methyl]phenyl}-3-(2-pyridin-2-ylethyl)-1H-indol-5-yl]propanoic acid hydrochloride] | 764
CC(O)c1ccc(-n2cc(CCc3ccccn3)c3cc(CCC(=O)O)ccc32)cc1 (centres unmarked) [Example 304, 3-{1-[4-(1-hydroxyethyl)phenyl]-3-(2-pyridin-2-ylethyl)-1H-indol-5-yl}propanoic acid hydrochloride] | > 3000
O=C(O)CCc1ccc2c(c1)c(CCc1ccccc1)cn2-c1ccc(CN2CCCC2)cc1 [Example 306, 3-{3-(2-phenylethyl)-1-[4-(pyrrolidin-1-ylmethyl)phenyl]-1H-indol-5-yl}propanoic acid] | 871
O=C(O)CCc1ccc2c(c1)c(CCc1ccccc1)cn2-c1ccc(CN2CCOCC2)cc1 [Example 308, 3-{1-[4-(morpholin-4-ylmethyl)phenyl]-3-(2-phenylethyl)-1H-indol-5-yl}propanoic acid] | 149
CN(C)C(=O)c1ccc(-n2cc(CCc3ccccc3)c3cc(CCC(=O)O)ccc32)cc1 [Example 310, 3-[1-{4-[(dimethylamino)carbonyl]phenyl}-3-(2-phenylethyl)-1H-indol-5-yl]propanoic acid] | 354
O=C(O)CCc1ccc2c(c1)c(CCc1ccccc1)cn2-c1ccc(C(=O)N2CCOCC2)cc1 [Example 312, 3-{1-[4-(morpholin-4-ylcarbonyl)phenyl]-3-(2-phenylethyl)-1H-indol-5-yl}propanoic acid] | 404
CN(C)C(=O)c1cccc(-n2cc(CCc3ccccc3)c3cc(CCC(=O)O)ccc32)c1 [Example 314, 3-{1-[3-(dimethylcarbamoyl)phenyl]-3-(2-phenylethyl)-1H-indol-5-yl}propanoic acid] | > 3000
O=C(O)CCc1ccc2c(c1)c(CCc1ccccc1)cn2-c1cccc(C(=O)N2CCOCC2)c1 [Example 316, 3-{1-[3-(morpholin-4-ylcarbonyl)phenyl]-3-(2-phenylethyl)-1H-indol-5-yl}propanoic acid] | > 3000
CN(C)S(=O)(=O)c1ccc(-n2cc(CCc3ccccc3)c3cc(CCC(=O)O)ccc32)cc1 [Example 318, 3-[1-{4-[(dimethylamino)sulfonyl]phenyl}-3-(2-phenylethyl)-1H-indol-5-yl]propanoic acid] | 271
O=C(O)CCc1ccc2c(c1)c(CCc1ccccc1)cn2-c1ccc(S(=O)(=O)N2CCOCC2)cc1 [Example 320, 3-{1-[4-(morpholin-4-ylsulfonyl)phenyl]-3-(2-phenylethyl)-1H-indol-5-yl}propanoic acid] | 258
CN(C)S(=O)(=O)c1cccc(-n2cc(CCc3ccccc3)c3cc(CCC(=O)O)ccc32)c1 [Example 322, 3-[1-{3-[(dimethylamino)sulfonyl]phenyl}-3-(2-phenylethyl)-1H-indol-5-yl]propanoic acid] | 1910
O=C(O)CCc1ccc2c(c1)c(CCc1ccccc1)cn2-c1cccc(S(=O)(=O)N2CCOCC2)c1 [Example 324, 3-{1-[3-(morpholin-4-ylsulfonyl)phenyl]-3-(2-phenylethyl)-1H-indol-5-yl}propanoic acid] | 1630
CS(=O)(=O)c1ccc(-n2cc(CCc3ccccc3)c3cc(CCC(=O)O)ccc32)cc1 [Example 326, 3-{1-[4-(methylsulfonyl)phenyl]-3-(2-phenylethyl)-1H-indol-5-yl}propanoic acid] | 486
O=C(O)CCc1ccc2c(c1)c(CCc1ccccc1)cn2-c1ccc(OCCCO)cc1 [Example 328, 3-{1-[4-(3-hydroxypropoxy)phenyl]-3-(2-phenylethyl)-1H-indol-5-yl}propanoic acid 2-amino-2-(hydroxymethyl)propane-1,3-diol salt (1:1)] | 57
O=C(CCc1ccc2c(c1)c(CCc1ccccc1)cn2-c1ccc(OC(F)F)cc1)C(F)(F)F [Example 329, 4-{1-[4-(difluoromethoxy)phenyl]-3-(2-phenylethyl)-1H-indol-5-yl}-1,1,1-trifluorobutan-2-one] | 318
O=C(CCc1ccc2c(c1)c(CCc1ccccc1)cn2-c1ccc(Oc2ccccc2)cc1)C(F)(F)F [Example 330, 1,1,1-trifluoro-4-[1-(4-phenoxyphenyl)-3-(2-phenylethyl)-1H-indol-5-yl]butan-2-one] | 726
CS(=O)(=O)NC(=O)CCc1ccc2c(c1)c(CCc1ccccc1)cn2-c1ccc(Oc2ccccc2)cc1 [Example 331, N-(methylsulfonyl)-3-[1-(4-phenoxyphenyl)-3-(2-phenylethyl)-1H-indol-5-yl]propanamide] | > 3000
O=C(CCc1ccc2c(c1)c(CCc1ccccc1)cn2-c1ccc(OC(F)F)cc1)NS(=O)(=O)c1ccccc1 [Example 332, 3-{1-[4-(difluoromethoxy)phenyl]-3-(2-phenylethyl)-1H-indol-5-yl}-N-(phenylsulfonyl)propanamide] | > 3000
